{
  "source": "paper PMC8501799",
  "about": "“Constitutive signal bias mediated by the human GHRHR splice variant 1” (Proceedings of the National Academy of Sciences of the …, 2021)",
  "key": {"[1]": {"system": "GHRHR mutants (F82, F85, D274, E223, N296, L337, F338 to alanine)", "assay": "β-arrestin 1 recruitment (BRET), GHRHR single-point alanine mutants", "type": "cell-based, human", "details": "single residue to alanine; 250 μM GHRH; HEK293T; Fig. 5G", "experimental": "HEK293T cells were seeded at a density of 30,000 cells per well into 96-well culture plates pretreated with poly-D-lysine hydrobromide. After incubation for 24 h to reach 70% to 80% confluence, the cells were transiently transfected with HA-Flag-GHRHR-Rluc8 or HA-Flag-SV1-Rluc8 and β-arrestin 1/2-Venus at a 1:9 mass ratio using lipofectamine 3000 reagent (Invitrogen) and cultured for another 24 h. Thereafter, cells were washed once and incubated for 30 min at 37 °C with HBSS buffer (pH 7.4) supplemented with 0.1% BSA and 10 mM HEPES. Five micromolars of coelenterazine h (YEASEN Biotechnology) was then added and incubated for 5 min in the dark. The bioluminescence resonance energy transfer (BRET) signals were detected with an Envision plate reader by calculating the ratio of emission at 535 nm over emission at 470 nm."}, "SV1 mutants": {"system": "SV1 mutants", "assay": "cAMP accumulation, peptide-binding pocket mutants of SV1", "type": "cell-based, human", "details": "impairing contacts in the peptide-binding pocket; HEK293T; Fig. 4D", "experimental": "(§1) GHRH-stimulated cAMP accumulation was measured by a LANCE Ultra cAMP kit (PerkinElmer). Briefly, HEK293T cells (24 h after transfection with SV1 or GHRHR) or prostate cancer cells were digested by 0.2% (wt/vol) EDTA and washed once with Dulbecco’s phosphate-buffered saline (PBS). Cells were then resuspended with stimulation buffer (Hanks’ balanced salt solution [HBSS] supplemented with 5 mM HEPES, 0.5 mM IBMX, and 0.1% [wt/vol] bovine serum albumin [BSA], pH 7.4) to a density of 0.6 million cells per milliliter and added to 384-well white plates (3,000 cells per well). […] The reaction was stopped by adding 5 μL Eu-cAMP tracer and 5 μL ULight-anti-cAMP. After 1 h RT incubation, TR-FRET signals (excitation: 320 nm, emission: 615 and 665 nm) were measured by an Envision plate reader (PerkinElmer). cAMP concentrations were interpolated by a standard curve."}, "GHRHR L34A": {"target": "T1, GHRHR L34A (Homo sapiens, UniProt Q02643, L34A)", "T1 construct": "expressed in transfected cells; host or cells: HEK293T", "T1 sequence (Q02643 23-423 L34A)": "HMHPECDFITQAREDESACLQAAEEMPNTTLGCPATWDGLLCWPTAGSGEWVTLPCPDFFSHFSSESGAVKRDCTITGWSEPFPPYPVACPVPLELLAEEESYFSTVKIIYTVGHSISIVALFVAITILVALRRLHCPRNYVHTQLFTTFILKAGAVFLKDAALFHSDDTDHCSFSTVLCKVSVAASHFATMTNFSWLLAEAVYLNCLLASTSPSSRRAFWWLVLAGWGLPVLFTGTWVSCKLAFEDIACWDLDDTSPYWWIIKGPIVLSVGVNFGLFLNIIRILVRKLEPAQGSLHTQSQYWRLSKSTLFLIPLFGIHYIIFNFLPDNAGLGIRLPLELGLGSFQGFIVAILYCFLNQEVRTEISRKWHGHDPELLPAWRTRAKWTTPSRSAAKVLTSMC", "assay": "cAMP accumulation", "type": "cell-based", "details": "Table S2, mean ± SEM", "experimental": "as §1\n(§2) All functional study data were analyzed using Prism 7 (GraphPad) and presented as means ± SEM from at least three independent experiments. Concentration-response curves were evaluated with a three-parameter logistic equation. The significance was determined with either two-tailed Student’s t test or one-way ANOVA, and P < 0.05 is considered statistically significant.\n(§3) Table S2. Effects of residue mutation or truncation in the ECD of GHRHR on GHRH-induced cAMP […]\n(§4) Mutant pEC50 Emax (% WT GHRHR) expression ΔLog (τ/KA) […]\n(§5) cAMP accumulation data were analyzed using a three-parameter logistic equation to determine pEC50 and Emax values. pEC50 is the negative logarithm of the molar concentration of agonist that induced half the maximal response. Emax for mutants is expressed as a percentage of the WT GHRHR. Data were analyzed by nonlinear regression using the operational model equation to determine t he logR values (logτ/KA, i.e., logarithm of the transduction ratio). τ is the effi cacy value of the agonist and was corrected by cell surface expression of the receptor. KA is dissociation constant. Changes in transduction ratio (ΔlogR) were calculated to determine the relative effectiveness of the mutants. All values are means ± S.E.M. of at le ast three ind ep en dent experiments (n = 3-5) conducted in quadruplicate. Statistical analysis was carried out by comparing the control responses in the WT GHRHR. **, P < 0.01 and ***, P < 0.001, determined by one-way"}, "GHRHR Δ112": {"target": "T2, GHRHR Δ112 (Homo sapiens, UniProt Q02643)", "T2 construct": "expressed in transfected cells; host or cells: HEK293T", "assay": "cAMP accumulation", "type": "cell-based", "details": "Table S2, mean ± SEM", "experimental": "as §1, §2, §3, §4, §5"}, "GHRHR Δ62": {"target": "T3, GHRHR Δ62 (Homo sapiens, UniProt Q02643)", "T3 construct": "expressed in transfected cells; host or cells: HEK293T", "T3 sequence (Q02643 63-423 limits assumed, stated change not applied)": "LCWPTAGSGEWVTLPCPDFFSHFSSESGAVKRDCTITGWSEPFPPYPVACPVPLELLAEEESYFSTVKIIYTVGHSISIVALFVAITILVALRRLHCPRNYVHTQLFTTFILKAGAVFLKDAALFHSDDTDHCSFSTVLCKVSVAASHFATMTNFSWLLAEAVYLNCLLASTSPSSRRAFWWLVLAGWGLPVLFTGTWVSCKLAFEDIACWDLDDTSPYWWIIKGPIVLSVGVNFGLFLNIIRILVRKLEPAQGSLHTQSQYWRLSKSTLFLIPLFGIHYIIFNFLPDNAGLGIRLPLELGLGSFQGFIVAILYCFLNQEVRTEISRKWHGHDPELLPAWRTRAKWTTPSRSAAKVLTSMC", "assay": "cAMP accumulation", "type": "cell-based", "details": "Table S2, mean ± SEM", "experimental": "as §1, §2, §3, §4, §5"}, "GHRHR Δ89": {"target": "T4, GHRHR Δ89 (Homo sapiens, UniProt Q02643)", "T4 construct": "expressed in transfected cells; host or cells: HEK293T", "T4 sequence (Q02643 90-423)": "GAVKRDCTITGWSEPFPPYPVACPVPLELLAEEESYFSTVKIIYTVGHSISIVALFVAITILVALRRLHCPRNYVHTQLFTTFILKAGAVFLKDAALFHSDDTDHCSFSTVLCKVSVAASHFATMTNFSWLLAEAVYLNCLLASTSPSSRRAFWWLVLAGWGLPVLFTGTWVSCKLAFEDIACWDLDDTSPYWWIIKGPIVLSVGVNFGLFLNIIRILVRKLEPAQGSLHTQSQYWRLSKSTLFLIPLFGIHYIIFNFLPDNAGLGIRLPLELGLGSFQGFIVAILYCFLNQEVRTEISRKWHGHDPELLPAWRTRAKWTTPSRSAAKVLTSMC", "assay": "cAMP accumulation", "type": "cell-based", "experimental": "as §1, §2, §3, §4, §5"}, "GHRHR Δ52": {"target": "T5, GHRHR Δ52 (Homo sapiens, UniProt Q02643)", "T5 construct": "expressed in transfected cells; host or cells: HEK293T", "T5 sequence (Q02643 53-423 limits assumed, stated change not applied)": "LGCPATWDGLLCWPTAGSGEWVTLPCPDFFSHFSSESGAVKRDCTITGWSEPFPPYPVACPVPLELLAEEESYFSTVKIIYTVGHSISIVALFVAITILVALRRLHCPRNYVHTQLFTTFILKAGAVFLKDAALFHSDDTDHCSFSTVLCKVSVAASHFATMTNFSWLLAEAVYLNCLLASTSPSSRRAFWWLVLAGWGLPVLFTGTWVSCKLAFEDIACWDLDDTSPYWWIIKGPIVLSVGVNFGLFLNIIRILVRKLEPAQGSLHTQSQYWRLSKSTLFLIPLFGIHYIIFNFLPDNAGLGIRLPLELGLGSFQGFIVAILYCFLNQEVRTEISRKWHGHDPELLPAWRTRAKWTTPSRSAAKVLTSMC", "assay": "cAMP accumulation", "type": "cell-based", "details": "Table S2, mean ± SEM", "experimental": "as §1, §2, §3, §4, §5"}, "GHRHR Δ102": {"target": "T6, GHRHR Δ102 (Homo sapiens, UniProt Q02643)", "T6 construct": "expressed in transfected cells; host or cells: HEK293T", "assay": "cAMP accumulation", "type": "cell-based", "details": "Table S2, mean ± SEM", "experimental": "as §1, §2, §3, §4, §5"}, "GHRHR ΔECD": {"system": "GHRHR ΔECD", "assay": "cAMP accumulation", "type": "cell-based, human", "experimental": "as §1, §2, §3, §4, §5"}, "[2]": {"details": "HEK-293T, HEK293T, n = 3-5 in quadruplicate"}, "[3]": {"details": "operational model, τ corrected by cell surface expression, relative to WT GHRHR"}, "[4]": {"details": "Table S2, operational model, τ corrected by cell surface expression, relative to WT GHRHR, mean ± SEM"}},
  "data": [
    {"smiles": "CC[C@H](C)[C@H](NC(=O)[C@H](C)NC(=O)[C@H](CC(=O)O)NC(=O)[C@H](C)NC(=O)[C@@H](N)Cc1ccc(O)cc1)C(=O)N[C@@H](Cc1ccccc1)C(=O)N[C@H](C(=O)N[C@@H](CC(N)=O)C(=O)N[C@@H](CO)C(=O)N[C@@H](Cc1ccc(O)cc1)C(=O)N[C@@H](CCCNC(=N)N)C(=O)N[C@@H](CCCCN)C(=O)N[C@H](C(=O)N[C@@H](CC(C)C)C(=O)NCC(=O)N[C@@H](CCC(N)=O)C(=O)N[C@@H](CC(C)C)C(=O)N[C@@H](CO)C(=O)N[C@@H](C)C(=O)N[C@@H](CCCNC(=N)N)C(=O)N[C@@H](CCCCN)C(=O)N[C@@H](CC(C)C)C(=O)N[C@@H](CC(C)C)C(=O)N[C@@H](CCC(N)=O)C(=O)N[C@@H](CC(=O)O)C(=O)N[C@H](C(=O)N[C@@H](CCSC)C(=O)N[C@@H](CO)C(=O)N[C@@H](CCCNC(=N)N)C(=O)N[C@@H](CCC(N)=O)C(=O)N[C@@H](CCC(N)=O)C(=O)NCC(=O)N[C@@H](CCC(=O)O)C(=O)N[C@@H](CO)C(=O)N[C@@H](CC(N)=O)C(=O)N[C@@H](CCC(N)=O)C(=O)N[C@@H](CCC(=O)O)C(=O)N[C@@H](CCCNC(=N)N)C(=O)NCC(=O)N[C@@H](C)C(=O)N[C@@H](CCCNC(=N)N)C(=O)N[C@@H](C)C(=O)N[C@@H](CCCNC(=N)N)C(=O)N[C@@H](CC(C)C)C(N)=O)[C@@H](C)CC)C(C)C)[C@@H](C)O", "note": "[GHRH, growth hormone–releasing hormone]", "values": [
      {"measurement": "β-arrestin 1 recruitment", "setting": "[1]", "result": "significantly increased the capability of GHRHR to recruit β-arrestin 1"},
      {"measurement": "potency of GHRH-induced cAMP accumulation", "setting": "SV1 mutants", "result": "dramatically decreased the potency"},
      {"measurement": "Emax", "setting": "GHRHR L34A; [2]", "result": "101 ± 2.23", "unit": "%"},
      {"measurement": "ΔLog (τ/KA)", "setting": "GHRHR L34A; [3]", "result": "-0.78 ± 0.06"},
      {"measurement": "Emax", "setting": "GHRHR Δ112; [2]", "result": "106 ± 2.34", "unit": "%"},
      {"measurement": "ΔLog (τ/KA)", "setting": "GHRHR Δ112; [3]", "result": "-3.65 ± 0.02"},
      {"measurement": "Emax", "setting": "GHRHR Δ62; [2]", "result": "104 ± 2.19", "unit": "%"},
      {"measurement": "ΔLog (τ/KA)", "setting": "GHRHR Δ62; [3]", "result": "-3.05 ± 0.03"},
      {"measurement": "cAMP responses after removal of the N-terminal 89 residues", "setting": "GHRHR Δ89; HEK293T, Fig. 1B", "result": "diminished cAMP responses"},
      {"measurement": "Emax", "setting": "GHRHR Δ89; HEK-293T, Table S2, HEK293T, mean ± SEM, n = 3-5 in quadruplicate", "result": "106 ± 2.48", "unit": "%"},
      {"measurement": "ΔLog (τ/KA)", "setting": "GHRHR Δ89; [4]", "result": "-3.28 ± 0.03"},
      {"measurement": "Emax", "setting": "GHRHR Δ52; [2]", "result": "106 ± 1.62", "unit": "%"},
      {"measurement": "ΔLog (τ/KA)", "setting": "GHRHR Δ52; [3]", "result": "-2.83 ± 0.03"},
      {"measurement": "Emax", "setting": "GHRHR Δ102; [2]", "result": "107 ± 2.15", "unit": "%"},
      {"measurement": "ΔLog (τ/KA)", "setting": "GHRHR Δ102; [3]", "result": "-3.55 ± 0.02"},
      {"measurement": "cAMP responses after deletion of the entire ECD", "setting": "GHRHR ΔECD; HEK293T, Fig. 1B", "result": "diminished cAMP responses"},
      {"measurement": "pEC50 of cAMP accumulation", "setting": "GHRHR ΔECD; Table S2, HEK293T, LANCE Ultra cAMP, 30 min RT, 0.5 mM IBMX, mean ± SEM, n = 3-5 in quadruplicate", "result": "5.53 ± 0.07"},
      {"measurement": "Emax of cAMP accumulation", "setting": "GHRHR ΔECD; Table S2, HEK293T, mean ± SEM, n = 3-5 in quadruplicate", "result": "111.27 ± 3.65", "unit": "% WT GHRHR"},
      {"measurement": "ΔLog (τ/KA)", "setting": "GHRHR ΔECD; [4]", "result": "-4.55 ± 0.04"}
    ]}
  ]
}
